We go through two compounds from article PMC7613998, “Development of selective inhibitors of phosphatidylinositol 3-kinase C2α” (Nature Chemical Biology, 2022).

Holding throughout (assay): biochemical
Holding throughout (set-up): SelectScreen Z'-LYTE purified kinase panel, per cent inhibition, mean of two points
Holding throughout (conditions): (μM)=Km app

Experiment [1] deals with T1, ZAP70 (Homo sapiens, UniProt P43403).
T1 sequence (P43403 1-619): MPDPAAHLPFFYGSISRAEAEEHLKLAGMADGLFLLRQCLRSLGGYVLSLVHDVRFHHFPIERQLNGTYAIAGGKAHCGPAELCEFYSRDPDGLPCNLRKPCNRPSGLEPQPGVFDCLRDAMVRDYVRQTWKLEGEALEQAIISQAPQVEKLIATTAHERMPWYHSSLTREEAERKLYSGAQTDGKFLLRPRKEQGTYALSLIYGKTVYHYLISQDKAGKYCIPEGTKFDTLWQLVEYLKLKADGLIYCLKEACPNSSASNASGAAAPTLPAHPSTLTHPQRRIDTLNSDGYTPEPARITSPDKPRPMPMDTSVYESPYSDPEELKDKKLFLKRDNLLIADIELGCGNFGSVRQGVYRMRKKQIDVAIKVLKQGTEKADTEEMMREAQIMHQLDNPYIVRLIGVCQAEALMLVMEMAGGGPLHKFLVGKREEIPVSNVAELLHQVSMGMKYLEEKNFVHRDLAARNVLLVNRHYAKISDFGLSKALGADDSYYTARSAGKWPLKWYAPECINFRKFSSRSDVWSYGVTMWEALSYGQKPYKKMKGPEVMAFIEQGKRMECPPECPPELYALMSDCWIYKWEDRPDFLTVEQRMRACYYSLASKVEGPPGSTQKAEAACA

Experiment [2] concerns the target T2, DNA-PK (Homo sapiens, UniProt P78527).
T2 construct: gene PRKDC

The target of experiment [3] is T3, AXL (Homo sapiens, UniProt P30530).
T3 sequence (P30530 1-894): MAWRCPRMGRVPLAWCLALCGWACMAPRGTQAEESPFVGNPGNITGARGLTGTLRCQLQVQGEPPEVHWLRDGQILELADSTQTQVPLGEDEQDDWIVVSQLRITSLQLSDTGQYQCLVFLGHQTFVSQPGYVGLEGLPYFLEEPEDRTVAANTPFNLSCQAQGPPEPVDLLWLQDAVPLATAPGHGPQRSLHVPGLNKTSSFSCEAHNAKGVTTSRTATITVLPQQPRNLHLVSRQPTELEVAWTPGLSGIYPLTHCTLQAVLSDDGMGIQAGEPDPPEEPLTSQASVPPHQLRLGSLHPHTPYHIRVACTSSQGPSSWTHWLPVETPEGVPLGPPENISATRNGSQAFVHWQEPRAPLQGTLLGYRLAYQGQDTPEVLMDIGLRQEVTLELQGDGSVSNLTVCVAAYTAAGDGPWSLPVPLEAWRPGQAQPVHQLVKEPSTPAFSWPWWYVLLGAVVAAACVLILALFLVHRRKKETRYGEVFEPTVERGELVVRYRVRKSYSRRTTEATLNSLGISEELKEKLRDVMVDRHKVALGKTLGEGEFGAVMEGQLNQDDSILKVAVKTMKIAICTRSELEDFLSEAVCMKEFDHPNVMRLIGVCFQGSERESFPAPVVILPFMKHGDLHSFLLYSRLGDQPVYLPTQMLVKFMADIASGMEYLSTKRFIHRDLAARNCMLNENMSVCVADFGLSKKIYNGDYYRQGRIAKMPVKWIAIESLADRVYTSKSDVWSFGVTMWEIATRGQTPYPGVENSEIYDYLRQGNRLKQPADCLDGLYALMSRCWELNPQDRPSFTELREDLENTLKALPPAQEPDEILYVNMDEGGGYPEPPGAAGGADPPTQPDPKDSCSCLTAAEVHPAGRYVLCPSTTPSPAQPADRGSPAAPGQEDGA

The target in experiment [4] is RET (Homo sapiens, UniProt P07949).
RET, sequence (P07949 whole entry): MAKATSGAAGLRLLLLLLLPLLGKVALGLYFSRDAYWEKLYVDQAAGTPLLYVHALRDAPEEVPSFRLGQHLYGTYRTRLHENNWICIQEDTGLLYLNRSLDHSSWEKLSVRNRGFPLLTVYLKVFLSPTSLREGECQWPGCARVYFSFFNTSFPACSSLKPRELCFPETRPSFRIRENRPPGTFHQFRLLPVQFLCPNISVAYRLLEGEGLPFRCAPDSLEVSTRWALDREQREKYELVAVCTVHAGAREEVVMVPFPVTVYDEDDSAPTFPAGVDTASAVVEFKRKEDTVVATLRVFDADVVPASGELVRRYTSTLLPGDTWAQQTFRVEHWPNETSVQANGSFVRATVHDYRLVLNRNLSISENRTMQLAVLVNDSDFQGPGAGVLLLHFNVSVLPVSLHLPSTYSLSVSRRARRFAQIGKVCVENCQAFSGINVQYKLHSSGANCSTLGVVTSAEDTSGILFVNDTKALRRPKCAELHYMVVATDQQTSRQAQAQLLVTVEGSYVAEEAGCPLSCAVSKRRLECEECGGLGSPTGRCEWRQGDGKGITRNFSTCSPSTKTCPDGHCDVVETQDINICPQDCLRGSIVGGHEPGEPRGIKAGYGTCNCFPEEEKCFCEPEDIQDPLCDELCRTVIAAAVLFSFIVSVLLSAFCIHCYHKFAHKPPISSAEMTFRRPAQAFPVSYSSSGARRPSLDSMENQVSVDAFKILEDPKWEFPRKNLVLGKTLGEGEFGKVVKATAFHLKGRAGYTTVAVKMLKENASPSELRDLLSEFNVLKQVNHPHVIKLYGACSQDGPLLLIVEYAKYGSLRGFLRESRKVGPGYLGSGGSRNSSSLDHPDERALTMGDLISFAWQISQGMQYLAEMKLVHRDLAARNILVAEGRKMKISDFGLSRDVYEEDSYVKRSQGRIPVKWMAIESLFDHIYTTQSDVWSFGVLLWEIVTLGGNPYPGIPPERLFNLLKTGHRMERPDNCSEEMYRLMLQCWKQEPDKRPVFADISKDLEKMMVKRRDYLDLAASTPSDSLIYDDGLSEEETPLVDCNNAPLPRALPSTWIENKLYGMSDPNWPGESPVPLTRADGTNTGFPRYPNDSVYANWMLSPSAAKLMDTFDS
Experiment [5] addresses T4, MAPKAPK5 (PRAK) (Homo sapiens, UniProt Q8IW41).
T4 sequence (Q8IW41 1-473): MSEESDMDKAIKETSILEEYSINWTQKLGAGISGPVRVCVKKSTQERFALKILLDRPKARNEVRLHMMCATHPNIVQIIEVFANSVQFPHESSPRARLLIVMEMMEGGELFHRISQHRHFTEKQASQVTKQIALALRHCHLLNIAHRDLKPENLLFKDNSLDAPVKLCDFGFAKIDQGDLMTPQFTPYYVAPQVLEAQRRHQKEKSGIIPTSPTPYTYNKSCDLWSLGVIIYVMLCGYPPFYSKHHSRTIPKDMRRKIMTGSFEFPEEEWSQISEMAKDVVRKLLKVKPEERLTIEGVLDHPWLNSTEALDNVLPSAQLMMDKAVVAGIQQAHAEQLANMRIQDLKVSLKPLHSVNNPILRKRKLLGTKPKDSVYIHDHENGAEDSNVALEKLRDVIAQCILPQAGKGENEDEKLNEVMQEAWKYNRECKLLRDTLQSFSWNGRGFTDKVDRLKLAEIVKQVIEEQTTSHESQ

Experiment [6] has as its target PDGFRA (PDGFR alpha) (Homo sapiens, UniProt P16234).
In experiment [7] the target is ABL1 (Homo sapiens, UniProt P00519).
ABL1, sequence (P00519 whole entry): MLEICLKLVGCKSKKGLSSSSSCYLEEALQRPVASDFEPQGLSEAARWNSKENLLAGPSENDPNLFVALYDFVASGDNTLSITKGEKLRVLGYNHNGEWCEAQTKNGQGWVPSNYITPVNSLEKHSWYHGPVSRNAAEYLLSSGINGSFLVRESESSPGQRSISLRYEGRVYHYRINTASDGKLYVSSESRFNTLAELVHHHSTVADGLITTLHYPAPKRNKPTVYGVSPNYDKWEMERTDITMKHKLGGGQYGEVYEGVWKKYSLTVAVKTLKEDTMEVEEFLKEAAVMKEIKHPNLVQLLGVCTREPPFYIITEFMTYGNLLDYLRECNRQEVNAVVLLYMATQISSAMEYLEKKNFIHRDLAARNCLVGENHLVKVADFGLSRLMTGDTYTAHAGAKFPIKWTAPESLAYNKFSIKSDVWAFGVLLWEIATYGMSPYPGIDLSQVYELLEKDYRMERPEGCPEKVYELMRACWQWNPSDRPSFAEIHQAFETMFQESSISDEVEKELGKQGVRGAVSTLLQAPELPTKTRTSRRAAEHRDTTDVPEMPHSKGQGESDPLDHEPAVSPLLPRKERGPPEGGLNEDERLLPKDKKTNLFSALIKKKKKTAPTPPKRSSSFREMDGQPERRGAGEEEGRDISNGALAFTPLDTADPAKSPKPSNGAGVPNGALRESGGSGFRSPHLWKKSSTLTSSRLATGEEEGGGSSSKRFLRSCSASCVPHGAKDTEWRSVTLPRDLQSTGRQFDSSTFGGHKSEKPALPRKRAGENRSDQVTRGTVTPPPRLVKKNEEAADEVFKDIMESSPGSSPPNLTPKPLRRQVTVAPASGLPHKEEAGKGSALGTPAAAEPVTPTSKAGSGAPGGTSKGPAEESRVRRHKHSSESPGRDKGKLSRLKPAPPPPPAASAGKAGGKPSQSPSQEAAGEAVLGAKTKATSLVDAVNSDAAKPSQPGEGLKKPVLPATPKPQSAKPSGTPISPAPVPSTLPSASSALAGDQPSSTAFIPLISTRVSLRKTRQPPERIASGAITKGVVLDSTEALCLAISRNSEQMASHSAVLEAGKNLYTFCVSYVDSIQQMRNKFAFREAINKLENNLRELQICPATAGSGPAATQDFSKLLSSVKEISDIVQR

Usually inhibition stands for the relative decrease from the control value, in per cent.

PDGFRA (PDGFR alpha), sequence (P16234 whole entry): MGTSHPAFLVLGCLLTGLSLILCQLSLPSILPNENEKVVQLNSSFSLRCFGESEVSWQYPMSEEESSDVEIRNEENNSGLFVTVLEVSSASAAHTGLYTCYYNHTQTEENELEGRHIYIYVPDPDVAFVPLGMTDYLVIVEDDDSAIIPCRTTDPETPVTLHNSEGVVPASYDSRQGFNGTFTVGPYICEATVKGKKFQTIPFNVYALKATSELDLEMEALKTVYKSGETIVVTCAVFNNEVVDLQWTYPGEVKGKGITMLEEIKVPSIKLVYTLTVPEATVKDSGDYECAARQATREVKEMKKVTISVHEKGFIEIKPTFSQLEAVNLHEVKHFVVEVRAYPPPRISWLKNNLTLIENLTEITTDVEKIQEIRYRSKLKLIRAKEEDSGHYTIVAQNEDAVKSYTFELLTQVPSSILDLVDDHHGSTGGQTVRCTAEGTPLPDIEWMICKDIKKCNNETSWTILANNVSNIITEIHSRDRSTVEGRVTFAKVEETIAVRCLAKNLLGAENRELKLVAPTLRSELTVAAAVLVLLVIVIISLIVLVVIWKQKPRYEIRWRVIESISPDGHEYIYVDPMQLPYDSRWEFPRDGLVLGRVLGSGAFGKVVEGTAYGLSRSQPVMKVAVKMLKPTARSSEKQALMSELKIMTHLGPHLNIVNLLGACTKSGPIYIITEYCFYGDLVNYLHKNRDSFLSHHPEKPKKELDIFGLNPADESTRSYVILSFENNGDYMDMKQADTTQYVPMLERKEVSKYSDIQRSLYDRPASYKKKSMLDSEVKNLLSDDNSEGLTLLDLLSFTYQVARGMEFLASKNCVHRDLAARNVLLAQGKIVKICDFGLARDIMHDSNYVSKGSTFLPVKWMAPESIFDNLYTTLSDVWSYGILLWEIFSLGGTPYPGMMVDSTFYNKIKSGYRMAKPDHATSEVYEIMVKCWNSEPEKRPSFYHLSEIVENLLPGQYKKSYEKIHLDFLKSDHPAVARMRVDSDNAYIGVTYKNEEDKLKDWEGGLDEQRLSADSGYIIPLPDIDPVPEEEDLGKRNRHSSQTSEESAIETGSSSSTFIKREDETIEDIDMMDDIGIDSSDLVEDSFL

In the case of `O=C(CSc1nc2nccnc2c(=O)n1CCc1ccccc1)Nc1nccs1` [compound 1, PITCOIN1], the inhibition at 1 µM in experiment [1] was 13.7%; in experiment [2], 13.4%; in experiment [3], -3.88%; in experiment [4], 4.11%; in experiment [5], -1.38%; in experiment [6] it was 8.94%. Further, the inhibition at 1 µM in experiment [7] was 2.07%. The inhibition at 3 µM is 11.6% in experiment [1]; 14.1% in experiment [2]; -5.8% in experiment [3]; 3.69% in experiment [4]; 1.26% in experiment [5]; 1.9% in experiment [6]. The inhibition at 3 µM in experiment [7] is 2.45%. Also, the inhibition at 10 µM was 9.43% in experiment [1]; 12.5% in experiment [2]; -2.92% in experiment [3]; 4.56% in experiment [4]; 0.194% in experiment [5]; 4.84% in experiment [6]. Further, the inhibition at 10 µM in experiment [7] stood at 1.9%.

Consider `CS(=O)(=O)Nc1cccc(-c2csc(NC(=O)CSc3nc4nccnc4c(=O)n3CCc3ccccc3)n2)c1` [compound 3, PITCOIN3], for which the inhibition at 1 µM was 17.4% in experiment [1]; 11% in experiment [2]; -4.95% in experiment [3]; 7.87% in experiment [4]; -3.78% in experiment [5]; 1.77% in experiment [6]. Besides, in experiment [7], the inhibition at 1 µM was 1.91%. The inhibition at 3 µM in experiment [1] was 12.6%; in experiment [2] it was 23.7%; in experiment [3] it was -1.87%; in experiment [4], 5.35%; in experiment [5], 2.14%; in experiment [6], 20.1%. Also, the inhibition at 3 µM in experiment [7] stood at 4.06%. In addition, the inhibition at 10 µM in experiment [1] was 14.5%; in experiment [2], 23.3%; in experiment [3] it was -3.45%; in experiment [4] it was 5%; in experiment [5] it was -2.49%; in experiment [6], 16.3%. The inhibition at 10 µM in experiment [7] amounted to 4%.
